Reference: US11590116B2 (THERAVANCE BIOPHARMA R&D IP, LLC, priority 2019, dated 2023)

How the values were obtained:
[1] = molecular target: T1, recombinant human ALK5 (TGF-βR1) protein (Homo sapiens, UniProt P36897); assay: Biochemical ALK5 (TGF-βR1) assay to measure pKi (LANCE Ultra ULight kinase assay); conditions: apparent pKi from pIC50 by Cheng-Prusoff, read-out: ALK5 pKi (converted)
T1 construct: purchased Life Technologies PR9075A
T1 sequence (P36897 34-503): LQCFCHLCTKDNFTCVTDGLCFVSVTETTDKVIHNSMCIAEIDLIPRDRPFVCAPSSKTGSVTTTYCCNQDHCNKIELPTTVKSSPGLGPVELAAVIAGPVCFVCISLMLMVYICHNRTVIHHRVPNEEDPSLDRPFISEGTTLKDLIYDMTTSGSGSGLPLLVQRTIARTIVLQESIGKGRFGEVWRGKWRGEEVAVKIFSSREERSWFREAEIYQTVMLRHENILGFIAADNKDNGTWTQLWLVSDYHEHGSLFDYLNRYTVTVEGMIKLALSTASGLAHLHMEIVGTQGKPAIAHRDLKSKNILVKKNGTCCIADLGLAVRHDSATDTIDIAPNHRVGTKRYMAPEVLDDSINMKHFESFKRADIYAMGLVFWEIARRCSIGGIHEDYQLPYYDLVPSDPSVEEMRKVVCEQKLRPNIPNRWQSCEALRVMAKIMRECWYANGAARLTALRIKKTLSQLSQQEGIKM
Outline: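 After a 60 min room-temperature preincubation of ALK5 with compound, phosphorylation proceeds 60 min at 37 °C on ATP addition (125 μM as 5× stock). Detection: Eu-labelled phospho-Thr1342 Topo IIα antibody in EDTA buffer, pH 7.0; emission 665 nm.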

[2] = system: TGF-β-stimulated SMAD3 phosphorylation in BEAS-2B cells; assay: Cellular ALK5 potency assay, inhibition of TGF-β stimulated pSMAD3 formation in BEAS-2B cells; type: cell-based; conditions: Homo sapiens; inhibition of TGF-β stimulated pSMAD3 formation, BEAS-2B cells; read-out: BEAS2B pIC50 (converted)
Outline: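 BEAS-2B human lung epithelial cells, seeded overnight, were pre-treated with compound in HBSS/25 mM HEPES/1% BSA for 1 h at 37 °C, then stimulated with TGF-β (final 10 ng/mL) for 30 min. Lysates were assayed for pSMAD3 by AlphaLISA; pIC50 came from dose-dependent signal change versus TGF-β-stimulated untreated cells.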

For `Cc1cccc(-c2[nH]cnc2-c2ccc3ncc(-c4cccc(C(=O)OCC5CNC5)c4)cc3c2)n1` [Compound 231, azetidin-3-ylmethyl 3-[6-[5-(6-methyl-2-pyridyl)-1H-imidazol-4-yl]-3-quinolyl]benzoate], the Ki [1] was 0.0398 to 0.316 nM and the IC50 [2] was 25.1 to 158 nM.
`Cc1cccc(-c2n[nH]cc2-c2ccc3ncc(N4CCC(N5CCCC5)C4)cc3n2)n1` (stereo not drawn) [Compound 336, 2-[3-(6-methyl-2-pyridyl)-1H-pyrazol-4-yl]-7-(3-pyrrolidin-1-ylpyrrolidin-1-yl)-1,5-naphthyridine] was tested, and the Ki [1] was < 0.0316 nM and the IC50 [2] was 25.1 to 158 nM.
Compound `Cc1nc(-c2n[nH]cc2-c2ccc3ncc(-c4cnn(CC5CC(N)C5)c4)cc3n2)ccc1F` (stereo not drawn) [Compound 455, 3-[[4-[6-[3-(5-fluoro-6-methyl-2-pyridyl)-1H-pyrazol-4-yl]-1,5-naphthyridin-3-yl]pyrazol-1-yl]methyl]cyclobutanamine] has a Ki [1] of 0.0398 to 0.316 nM and an IC50 [2] of 25.1 to 158 nM.
With `Cc1nc(-c2n[nH]cc2-c2ccc3ncc(-c4cnn([C@@H]5CCCC[C@H]5N)c4)cc3n2)ccc1F` [Compound 490, (1R,2R)-2-(4-(6-(3-(5-fluoro-6-methylpyridin-2-yl)-1H-pyrazol-4-yl)-1,5-naphthyridin-3-yl)-1H-pyrazol-1-yl)cyclohexan-1-amine] the Ki [1] was < 0.0316 nM and the IC50 [2] was < 20 nM.
Work on `Cc1cccc(-c2[nH]cnc2-c2ccc3ncc(C(=O)O[C@@H]4CCCC[C@@H]4N)cc3c2)n1` [Compound 881, (1R,2S)-2-aminocyclohexyl 6-(5-(6-methylpyridin-2-yl)-1H-imidazol-4-yl)quinoline-3-carboxylate] yielded a Ki [1] of 3.98 to 31.6 nM and an IC50 [2] of 200 to 1260 nM.
Compound `Cc1cccc(-c2n[nH]cc2-c2ccc3ncc(-c4c(C)nn5c4NCCC5)cc3n2)n1` [Compound 212, 2-[3-(6-methyl-2-pyridyl)-1H-pyrazol-4-yl]-7-(2-methyl-4,5,6,7-tetrahydropyrazolo[1,5-a]pyrimidin-3-yl)-1,5-naphthyridine] has a Ki [1] of 0.398 to 3.16 nM and an IC50 [2] of 25.1 to 158 nM.
For `Cc1cccc(-c2[nH]cnc2-c2ccc3ncc(-c4csc(C(=O)OC5CCNCC5)c4)cc3c2)n1` [Compound 751, 4-piperidyl 4-[6-[5-(6-methyl-2-pyridyl)-1H-imidazol-4-yl]-3-quinolyl]thiophene-2-carboxylate], the Ki [1] was < 0.0316 nM and the IC50 [2] was 25.1 to 158 nM.
`Cc1cccc(-c2[nH]ncc2-c2ccc3nccc(C(=O)OCCN4C[C@@H](C)N[C@@H](C)C4)c3c2)n1` [Compound 1176, 2-[(3R,5S)-3,5-dimethylpiperazin-1-yl]ethyl 6-[5-(6-methyl-2-pyridyl)-1H-pyrazol-4-yl]quinoline-4-carboxylate] gave a Ki [1] of 0.0398 to 0.316 nM and an IC50 [2] of 25.1 to 158 nM.
`Cc1cccc(-c2nnn(C)c2-c2ccc3ncc(N4CCNCC4)cc3c2)n1` [Compound 86, 6-[3-methyl-5-(6-methyl-2-pyridyl)triazol-4-yl]-3-piperazin-1-yl-quinoline] was tested, and the Ki [1] was 0.398 to 3.16 nM and the IC50 [2] was 25.1 to 158 nM.
With `Cc1cccc(-c2[nH]cnc2-c2ccc3ncc(-c4csc(C(=O)O[C@@H]5CCNC5)c4)cc3c2)n1` [Compound 749, [(3R)-pyrrolidin-3-yl] 4-[6-[5-(6-methyl-2-pyridyl)-1H-imidazol-4-yl]-3-quinolyl]thiophene-2-carboxylate] the Ki [1] was < 0.0316 nM and the IC50 [2] was 25.1 to 158 nM.
For `CCc1cccc(-c2n[nH]cc2-c2ccc3ncc(N4CCC(N(C)C)CC4)cc3n2)n1` [Compound 348, 1-[6-[3-(6-ethyl-2-pyridyl)-1H-pyrazol-4-yl]-1,5-naphthyridin-3-yl]-N,N-dimethyl-piperidin-4-amine], the Ki [1] was < 0.0316 nM and the IC50 [2] was 25.1 to 158 nM.
`Cc1cccc(-c2n[nH]cc2-c2ccc3nccc(C(=O)NCCCC[C@H](NC(=O)[C@@H](C)N)C(=O)O)c3n2)n1` (racemic) [Compound 804, rac-(2S)-6-[[6-[3-(6-methyl-2-pyridyl)-1H-pyrazol-4-yl]-1,5-naphthyridine-4-carbonyl]amino]-2-[[rac-(2R)-2-aminopropanoyl]amino]hexanoic acid] gave a Ki [1] of 0.398 to 3.16 nM and an IC50 [2] of 1580 to 10000 nM.
With `Cc1nc(-c2n[nH]cc2-c2ccc3ncc(-c4cnn5c4CNCC5)cc3n2)ccc1F` [Compound 185, 2-[3-(5-fluoro-6-methyl-2-pyridyl)-1H-pyrazol-4-yl]-7-(4,5,6,7-tetrahydropyrazolo[1,5-a]pyrazin-3-yl)-1,5-naphthyridine] the Ki [1] was 0.0398 to 0.316 nM and the IC50 [2] was < 20 nM.
Compound `Cc1cccc(-c2n[nH]cc2-c2ccc3ncc(-c4ncc5n4CCNC5)cc3n2)n1` [Compound 143, 2-[3-(6-methyl-2-pyridyl)-1H-pyrazol-4-yl]-7-(5,6,7,8-tetrahydroimidazo[1,5-a]pyrazin-3-yl)-1,5-naphthyridine] has a Ki [1] of 0.0398 to 0.316 nM and an IC50 [2] of 200 to 1260 nM.
`Cc1cccc(-c2[nH]cnc2-c2ccc3ncc(NCCN4CC(N)C4)cc3c2)n1` [Compound 476, N-[2-(3-aminoazetidin-1-yl)ethyl]-6-[5-(6-methyl-2-pyridyl)-1H-imidazol-4-yl]quinolin-3-amine] gave a Ki [1] of 0.0398 to 0.316 nM and an IC50 [2] of 25.1 to 158 nM.
In the case of `Cc1cc(-c2cnc3ccc(-c4c[nH]nc4-c4cccc(C)n4)nc3c2)ccn1` [Compound 454, 7-(2-methyl-4-pyridyl)-2-[3-(6-methyl-2-pyridyl)-1H-pyrazol-4-yl]-1,5-naphthyridine], the Ki [1] is reported as < 0.0316 nM and the IC50 [2] is reported as < 20 nM.
Work on `Cc1cccc(-c2n[nH]cc2-c2ccc3ncc(-c4cnn(CC(=O)N5CCNCC5)c4)cc3n2)n1` [Compound 295, 2-[4-[6-[3-(6-methyl-2-pyridyl)-1H-pyrazol-4-yl]-1,5-naphthyridin-3-yl]pyrazol-1-yl]-1-piperazin-1-yl-ethanone] yielded a Ki [1] of 0.0398 to 0.316 nM and an IC50 [2] of 200 to 1260 nM.
Work on `CNC1CC2CCC(C1)N2c1cnc2ccc(-c3c[nH]nc3-c3cccc(C)n3)nc2c1` (stereo not drawn) [Compound 248, N-methyl-8-[6-[3-(6-methyl-2-pyridyl)-1H-pyrazol-4-yl]-1,5-naphthyridin-3-yl]-8-azabicyclo[3.2.1]octan-3-amine] yielded a Ki [1] of 3.98 to 31.6 nM and an IC50 [2] of 200 to 1260 nM.
Compound `Cc1cccc(-c2[nH]cnc2-c2ccc3ncc(-c4csc(C(=O)O)c4)cc3c2)n1` [Compound 798, 4-(6-(5-(6-methylpyridin-2-yl)-1H-imidazol-4-yl)quinolin-3-yl)thiophene-2-carboxylic acid] has a Ki [1] of 0.0398 to 0.316 nM and an IC50 [2] of 1580 to 10000 nM.
For `Cc1cccc(-c2n[nH]cc2-c2ccc3ncc(-c4ccccc4)cc3n2)n1` [Compound 398, 2-[3-(6-methyl-2-pyridyl)-1H-pyrazol-4-yl]-7-phenyl-1,5-naphthyridine], the Ki [1] was < 0.0316 nM and the IC50 [2] was < 20 nM.
Work on `Cc1cccc(-c2[nH]ncc2-c2ccc3ncc(C(=O)OCCC4CCNCC4)cc3c2)n1` [Compound 1255, 2-(4-piperidyl)ethyl 6-[5-(6-methyl-2-pyridyl)-1H-pyrazol-4-yl]quinoline-3-carboxylate] yielded a Ki [1] of 0.0398 to 0.316 nM and an IC50 [2] of 25.1 to 158 nM.
`Cc1cccc(-c2[nH]cnc2-c2ccc3ncc(-c4cncc(C(=O)OCC5CNC5)c4)cc3c2)n1` [Compound 665, azetidin-3-ylmethyl 5-[6-[5-(6-methyl-2-pyridyl)-1H-imidazol-4-yl]-3-quinolyl]pyridine-3-carboxylate] gave a Ki [1] of 0.0398 to 0.316 nM and an IC50 [2] of 200 to 1260 nM.
In the case of `Cc1cccc(-c2[nH]cnc2-c2ccc3ncc(-c4cccc(C(=O)O[C@@H]5CCNC5)n4)cc3c2)n1` [Compound 1126, [(3R)-pyrrolidin-3-yl] 6-[6-[5-(6-methyl-2-pyridyl)-1H-imidazol-4-yl]-3-quinolyl]pyridine-2-carboxylate], the Ki [1] is reported as < 0.0316 nM and the IC50 [2] is reported as 25.1 to 158 nM.
`Cc1cccc(-c2[nH]cnc2-c2ccc3ncc(-c4ccc(C(=O)OC[C@H]5CCCN5)cn4)cc3c2)n1` [Compound 1170, [(2R)-pyrrolidin-2-yl]methyl 6-[6-[5-(6-methyl-2-pyridyl)-1H-imidazol-4-yl]-3-quinolyl]pyridine-3-carboxylate] was tested, and the Ki [1] was 0.0398 to 0.316 nM and the IC50 [2] was 25.1 to 158 nM.
With `Cc1cccc(-c2[nH]ncc2-c2ccc3nccc(C(=O)OC[C@H]4CC[C@@H](N)CC4)c3c2)n1` [Compound 1130, (4-aminocyclohexyl)methyl 6-[5-(6-methyl-2-pyridyl)-1H-pyrazol-4-yl]quinoline-4-carboxylate] the Ki [1] was 0.398 to 3.16 nM and the IC50 [2] was 25.1 to 158 nM.
In the case of `Cc1cccc(-c2[nH]cnc2-c2ccc3ncc(-c4csc(C(=O)O[C@H]5CC[C@@](C)(N)CC5)c4)cc3c2)n1` [Compound 1232, (4-amino-4-methyl-cyclohexyl) 4-[6-[5-(6-methyl-2-pyridyl)-1H-imidazol-4-yl]-3-quinolyl]thiophene-2-carboxylate], the Ki [1] is reported as < 0.0316 nM and the IC50 [2] is reported as 25.1 to 158 nM.
`Cc1cccc(-c2[nH]cnc2-c2ccc3ncc(C(=O)OC[C@H]4CC[C@H](N)CC4)cc3c2)n1` [Compound 765, (4-aminocyclohexyl)methyl 6-[5-(6-methyl-2-pyridyl)-1H-imidazol-4-yl]quinoline-3-carboxylate] showed a Ki [1] of 0.0398 to 0.316 nM and an IC50 [2] of 25.1 to 158 nM.
